Where “and” joins values, the source holds several entries; their conditions need not be identical. Identical values can stand only once.

Assay [1] concerns wild type and GPR40-/- mice. Nature of the assay: Mouse incretin measurements (plasma glucagon, wild type and GPR40-/- mice). The following applies: for Plasma Glucagon: @ 30, individual animals (Fig 6A). In kind it is in vivo. As to the method:
Wild type and GPR40-/- mice were weighed the day prior to dosing. Food was removed from mice at lights on. 2 hours later mice were dosed via oral gavage (PO) at a volume of 10 ml/kg with vehicle (0.5% methylcellulose), AP1 at 30 mg/kg, or AP3 at 30 mg/kg. At 60 minutes post dose, mice were euthanized via CO2 asphyxiation. Blood was collected via cardiac puncture.
(§1) Blood for insulin, glucagon, GLP-1, GIP, and PYY measurements was collected into K2EDTA Microtainer tubes (BD, Franklin Lakes, NJ) pre-treated with DPP4 inhibitor (Millipore, Billerica, MA) and cOmplete™ Protease Inhibitor Cocktail Tablets (Roche Diagnostics, Indianapolis, IN). Tubes were centrifuged for 10 minutes at 5000 RPM, and plasma was aliquotted for analysis. Plasma insulin levels were measured via EIA (Mesoscale Discovery ELISA Kit, Gaithersburg MD). Rat plasma total GLP-1 was measured using Total GLP-1 (ver.2) Assay Kit (Cat#: K150JVC). The measurement of active GLP-1 was carried out in a similar manner as that described for total GLP-1 assay with the exception that MSD Active GLP-1 (ver. 2) assay kit (Cat# K150JWC) was used. Rat plasma glucagon was measured using an in-house glucagon assay developed as a MSD format sandwich immunoassay (Merck & Co., Inc., MRL, Kenilworth, NJ USA). The antibody specificity was cross validated via mass- spec using procedures described in Lee et al. Briefly, MSD Streptavidin Gold plates were coated with 2 μg/ml biotin mouse monoclonal antibody generated to glucagon. Test samples were added to the plates and a separate Sulfo- tagged monoclonal antibody was used to detect the captured glucagon protein (2 μg/ml). The ELISA was carried out in the standard reagents in the MSD format. The plate was read on the SECTOR Imager 6000 Reader. Metabolic hormones GIP (Gastric Inhibitory Polypeptide) and PYY (Peptide YY) were measured in rat plasma using the Rat Metabolic Magnetic Bead Panel (EMD Millipore, Billerica, MA). The assay was performed according to manufacturer protocol.

Assay [2] deals with wild type C57BL/6 and GLP-1R-/- mice. Nature of the assay: Mouse glucose tolerance test (IPGTT, wild type and GLP-1R-/- mice). It is filed as in vivo. Set-up: Plasma Insulin Net AUC: unit not given beside the values; Blood Glucose Net AUC: unit not given here. As to conditions: for Blood Glucose / Plasma Insulin: 10 mpk, 10 mg/kg; for Blood Glucose Net AUC / Plasma Insulin Net AUC: @ 10, individual animals. The procedure: Wild type C57BL/6 mice and GLP-1R^-/- mice were fed a high fat diet (D12492i, Research Diets) for 6 weeks prior to GTT. On the day of study, mice were fasted at 1 h post lights on, and body weights were measured. […] Mice were then dosed PO at a volume of 10 ml/kg with vehicle (0.5% methylcellulose), MK-2305 (a GPR40 partial agonist described in Hauge et al) at 10 mg/kg, or AP1 at 30 mg/kg. Dosages of MK-2305 and AP1 were administered at maximal efficacious doses as determined by acute dose titrations with efficacy determined via reduction in glucose during an IPGTT (data not shown). […] Blood glucose was measured again (time = 0) just prior to an intraperitoneal (IP) dextrose challenge of 1 g/kg at 10 ml/kg dose volume (Dextrose, Hospira Inc., Lake Forrest IL). A subset of vehicle treated mice was injected with 0.9% NaCl saline to serve as negative control. Blood glucose was then measured at 10, 20, 40, 60, and 120 min after challenge. To capture insulin secretion during the IPGTT, blood via tail vein was collected at t = - 60, 0, 10, 20, 40, 60 min post challenge.
Net AUC was calculated by subtracting the average AUC of the saline group from each groups’ total AUC.
as §1

Setting [3] is: GLP-1R-/- and wild type mice, MK-2305 10 mg/kg, AP1 30 mg/kg PO.
The mark [4] stands for this setting: KO mice, Time 0, individual animals.
The mark [5] stands for this setting: KO mice, Time 10, individual animals.
The mark [6] stands for this setting: KO mice, Time 20, individual animals.
Setting [7] is: KO mice, Time 40, individual animals.
The mark [8] stands for this setting: KO mice, Time 60, individual animals.
Setting [9] is: KO mice, Time -60, individual animals.
Where [10] appears, read: WT mice, Time 0, individual animals.
The mark [11] stands for this setting: WT mice, Time 10, individual animals.
[12] abbreviates: WT mice, Time 20, individual animals.
The mark [13] stands for this setting: WT mice, Time 60, individual animals.
[14] abbreviates: WT mice, Time -60, individual animals.

For the compound `C[C@H](C(=O)O)[C@H](c1ccc2c(c1)O[C@H](C1CN(Cc3cc(C(F)(F)F)ccc3C(F)(F)F)C1)CC2)C1CC1` [AP3], the “Plasma Glucagon” value is 20.25 pg/mL and 37.44 pg/mL and 95.8 pg/mL and 40.58 pg/mL and 53.81 pg/mL and 63.13 pg/mL and 24.92 pg/mL in assay [1] (KO mice); 137.56 pg/mL and 161.08 pg/mL and 195.45 pg/mL and 174.67 pg/mL and 101.1 pg/mL and 67.12 pg/mL and 161.82 pg/mL in assay [1] (WT mice). For the same compound, the circulating glucagon result in assay [1] (WT mice, 30 mg/kg PO, 1h post dose) is given as “increase”.
Consider `O=C1NC(=O)C(C2CCOc3cc(Oc4ccc(C(F)(F)F)cc4Cl)ccc32)S1` (stereo not drawn) [MK-2305, reference compound], for which the “blood glucose excursion during IPGTT” value in assay [2] (setting [3]) was “reduced”. The “insulin following dextrose challenge (IPGTT)” value in assay [2] (setting [3]) was “no effect”. The “Blood Glucose” value in assay [2] (setting [4]) was 151 mg/dL and 150 mg/dL and 186 mg/dL and 194 mg/dL and 152 mg/dL and 171 mg/dL and 161 mg/dL; in assay [2] (setting [5]), 359 mg/dL and 371 mg/dL and 443 mg/dL and 389 mg/dL and 416 mg/dL and 530 mg/dL; in assay [2] (setting [6]) it was 361 mg/dL and 257 mg/dL and 455 mg/dL and 411 mg/dL and 438 mg/dL and 432 mg/dL and 566 mg/dL; in assay [2] (setting [7]), 332 mg/dL and 292 mg/dL and 386 mg/dL; in assay [2] (setting [8]), 346 mg/dL and 269 mg/dL and 435 mg/dL and 335 mg/dL and 332 mg/dL and 352 mg/dL and 512 mg/dL; in assay [2] (KO mice, Time 120, individual animals) it was 303 mg/dL and 186 mg/dL and 397 mg/dL and 270 mg/dL and 224 mg/dL and 260 mg/dL and 402 mg/dL. Further, the “Blood Glucose” value is 180 mg/dL and 203 mg/dL and 200 mg/dL and 205 mg/dL and 188 mg/dL and 236 mg/dL and 197 mg/dL in assay [2] (setting [9]); 165 mg/dL and 181 mg/dL and 160 mg/dL and 198 mg/dL and 154 mg/dL and 193 mg/dL and 185 mg/dL in assay [2] (KO mice, Time -90, individual animals); 173 mg/dl and 130 mg/dl (2×) and 172 mg/dl and 136 mg/dl and 151 mg/dl and 154 mg/dl in assay [2] (setting [10]); 300 mg/dL and 375 mg/dL and 416 mg/dL and 324 mg/dL and 318 mg/dL and 369 mg/dL and 438 mg/dL in assay [2] (setting [11]); 341 mg/dL and 386 mg/dL and 396 mg/dL and 278 mg/dL and 357 mg/dL and 365 mg/dL and 487 mg/dL in assay [2] (setting [12]); 285 mg/dL and 328 mg/dL and 270 mg/dL and 195 mg/dL and 296 mg/dL and 260 mg/dL and 442 mg/dL in assay [2] (setting [13]). Also, the “Blood Glucose” value in assay [2] (WT mice, Time 120, individual animals) is 328 mg/dL and 300 mg/dL and 191 mg/dL and 160 mg/dL and 218 mg/dL and 205 mg/dL and 311 mg/dL; in assay [2] (setting [14]) it was 177 mg/dl (2×) and 182 mg/dl and 162 mg/dl (2×) and 153 mg/dl and 176 mg/dl; in assay [2] (WT mice, Time -90, individual animals), 182 mg/dL and 151 mg/dL and 166 mg/dL and 146 mg/dL and 175 mg/dL and 155 mg/dL and 164 mg/dL. Moreover, the “Plasma Insulin” value was 0.848 ng/mL and 0.42 ng/mL and 0.528 ng/mL and 1.053 ng/mL and 0.383 ng/mL and 0.356 ng/mL and 0.379 ng/mL in assay [2] (setting [4]); 1.175 ng/mL and 0.368 ng/mL and 0.464 ng/mL and 0.199 ng/mL and 0.51 ng/mL and 0.24 ng/mL and 0.661 ng/mL in assay [2] (setting [5]); 1.151 ng/mL and 0.543 ng/mL and 0.441 ng/mL and 1.015 ng/mL and 0.58 ng/mL and 0.405 ng/mL and 0.254 ng/mL in assay [2] (setting [6]); 0.591 ng/mL and 0.442 ng/mL and 0.194 ng/mL and 0.983 ng/mL and 0.199 ng/mL and 0.278 ng/mL and 0.213 ng/mL in assay [2] (setting [7]); 0.58 ng/mL and 0.57 ng/mL and 0.264 ng/mL and 0.784 ng/mL and 0.335 ng/mL and 0.275 ng/mL and 0.261 ng/mL in assay [2] (setting [8]); 0.786 ng/mL and 0.573 ng/mL and 0.295 ng/mL and 0.819 ng/mL and 0.47 ng/mL and 0.336 ng/mL and 0.379 ng/mL in assay [2] (setting [9]). For the same compound, the “Plasma Insulin” value is 2.909 ng/mL and 1.344 ng/mL and 1.761 ng/mL and 0.655 ng/mL and 1.362 ng/mL and 1.244 ng/mL and 1.598 ng/mL in assay [2] (setting [10]); 1.538 ng/mL and 1.501 ng/mL and 2.253 ng/mL and 0.689 ng/mL and 0.787 ng/mL and 2.31 ng/mL and 1.19 ng/mL in assay [2] (setting [11]); 3.87 ng/mL and 1.373 ng/mL and 1.842 ng/mL and 0.672 ng/mL and 0.733 ng/mL and 1.031 ng/mL and 1.681 ng/mL in assay [2] (setting [12]); 3.585 ng/mL and 1.27 ng/mL and 1.204 ng/mL and 0.278 ng/mL and 1.824 ng/mL and 0.546 ng/mL and 1.72 ng/mL in assay [2] (WT mice, Time 40, individual animals); 2.679 ng/mL and 1.626 ng/mL and 1.133 ng/mL and 0.252 ng/mL and 0.763 ng/mL and 0.592 ng/mL and 1.175 ng/mL in assay [2] (setting [13]); 2.201 ng/mL and 1.482 ng/mL and 1.004 ng/mL and 0.467 ng/mL and 0.749 ng/mL and 1.475 ng/mL and 2.049 ng/mL in assay [2] (setting [14]). Besides, the “Blood Glucose Net AUC” value in assay [2] (KO mice) is 26136 and 8611 and -3694 and 17776 and 10566 and 8161 and 9656; in assay [2] (WT mice), 22732 and 10047 and 12357 and 7637 and -1383 and 8197 and 6232. Besides, the “Plasma Insulin Net AUC” value in assay [2] (KO mice) is -6.842 and 24.846 and 2.455 and -5.609 and 23.949 and -2.988 and -7.445; in assay [2] (WT mice), 17.355 and 112.532 and 10.066 and 20.452 and -45.584 and -4.157 and -12.281.
